Data taken from patent US20240189318A1, “THERAPEUTIC REGIMENS OF AN INHIBITOR OF THE ENZYMATIC ACTIVITY OF BRG1 AND BRM” (FOGHORN THERAPEUTICS INC., priority 2021, published 2024).

Key:
[1] = test system: Uveal melanoma cell lines, 92-1 or MP41; assay: 3-day growth inhibition, Compound A compared with clinical PKC and MEK inhibitors; format: cell-based
[2] = test system: Uveal melanoma cell lines (92-1, MP41, MP38, MP46) and non-small cell lung cancer cells (NCIH1299); assay: 3-day growth inhibition, Compound B; format: cell-based; details: 92-1, MP41, MP38, MP46, NCIH1299; 3 days, 0 to 10 μM
[3] = test system: Uveal melanoma cell lines, 92-1 or MP41; assay: 3-day growth inhibition, Compound B compared with clinical PKC and MEK inhibitors; format: cell-based
[4] = target: CYP2C19 (Homo sapiens, UniProt P33261); assay: Selective chemical inhibition of compound of formula (I) depletion in human liver microsomes, CYP2C19; format: in vitro ADME; design: from tissue; host or cells: human liver microsomes; details: human, human liver microsomes, probe compound of formula (I) (depletion); Time-dependent inhibitor; targeted CYP 2C19; inhibitor 10 μM
Sequence of CYP2C19 (P33261 whole entry): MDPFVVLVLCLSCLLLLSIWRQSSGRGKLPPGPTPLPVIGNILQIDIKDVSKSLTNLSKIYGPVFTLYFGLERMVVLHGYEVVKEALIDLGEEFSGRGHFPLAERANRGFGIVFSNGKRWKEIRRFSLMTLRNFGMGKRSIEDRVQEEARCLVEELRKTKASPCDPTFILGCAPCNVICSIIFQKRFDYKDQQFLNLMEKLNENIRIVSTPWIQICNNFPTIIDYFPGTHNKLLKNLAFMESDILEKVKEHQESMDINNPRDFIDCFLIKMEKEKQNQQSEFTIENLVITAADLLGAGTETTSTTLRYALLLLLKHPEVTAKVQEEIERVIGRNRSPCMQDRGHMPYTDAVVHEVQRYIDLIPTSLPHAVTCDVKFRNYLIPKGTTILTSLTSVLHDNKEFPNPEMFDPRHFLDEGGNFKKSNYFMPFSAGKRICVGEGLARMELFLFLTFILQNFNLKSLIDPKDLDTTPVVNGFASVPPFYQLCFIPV

[5] = target: T1, CYP1A2 (Homo sapiens, UniProt P05177); assay: in vitro
T1 sequence (P05177 1-516): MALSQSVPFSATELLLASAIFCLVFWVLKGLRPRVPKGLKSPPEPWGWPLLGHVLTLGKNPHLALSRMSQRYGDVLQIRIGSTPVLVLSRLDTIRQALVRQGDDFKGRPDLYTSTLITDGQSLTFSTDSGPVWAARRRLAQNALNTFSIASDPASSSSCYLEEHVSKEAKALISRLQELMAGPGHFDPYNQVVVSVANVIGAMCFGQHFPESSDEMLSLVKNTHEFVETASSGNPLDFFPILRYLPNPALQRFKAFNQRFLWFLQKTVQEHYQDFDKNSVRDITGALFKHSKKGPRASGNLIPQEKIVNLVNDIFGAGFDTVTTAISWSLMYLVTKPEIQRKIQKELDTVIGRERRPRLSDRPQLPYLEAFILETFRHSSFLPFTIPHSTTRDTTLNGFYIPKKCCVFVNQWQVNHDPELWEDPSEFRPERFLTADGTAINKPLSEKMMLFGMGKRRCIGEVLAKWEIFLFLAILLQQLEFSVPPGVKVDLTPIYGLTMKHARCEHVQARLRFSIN

[6] = target: T2, 2C8 (Homo sapiens, UniProt P10632); assay: Selective chemical inhibition of compound of formula (I) depletion in human liver microsomes, CYP2C8; format: in vitro ADME; details: Time-dependent inhibitor; targeted CYP 2C8; inhibitor 100 μM
T2 construct: from tissue; host or cells: human liver microsomes
T2 sequence (P10632 whole entry): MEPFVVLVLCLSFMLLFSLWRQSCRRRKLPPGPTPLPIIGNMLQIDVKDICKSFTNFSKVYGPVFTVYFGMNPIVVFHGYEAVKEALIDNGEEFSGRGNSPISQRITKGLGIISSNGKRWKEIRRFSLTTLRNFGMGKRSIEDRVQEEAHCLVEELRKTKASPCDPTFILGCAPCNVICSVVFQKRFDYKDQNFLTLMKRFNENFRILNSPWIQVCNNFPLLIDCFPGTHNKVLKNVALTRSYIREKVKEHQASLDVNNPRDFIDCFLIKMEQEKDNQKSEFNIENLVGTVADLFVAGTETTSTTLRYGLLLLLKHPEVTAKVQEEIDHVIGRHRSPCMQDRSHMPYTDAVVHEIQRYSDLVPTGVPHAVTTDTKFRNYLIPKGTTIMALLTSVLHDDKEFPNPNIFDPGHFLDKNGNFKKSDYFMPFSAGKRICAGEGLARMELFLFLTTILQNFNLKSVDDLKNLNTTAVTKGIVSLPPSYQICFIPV

[7] = test system: CYP3A4/5; assay: Selective chemical inhibition of compound of formula (I) depletion in human liver microsomes, CYP3A4/5; details: human
[8] = test system: parental MP41 cells and PKC inhibitor (PKCl)-resistant cells; assay: 7-day growth inhibition assay, parental and PKC inhibitor-resistant cells; format: cell-based; details: 7-day assay
[9] = target: T3, CYP2A6 (Homo sapiens, UniProt P11509); assay: Selective chemical inhibition of compound of formula (I) depletion in human liver microsomes, CYP2A6; format: in vitro ADME; details: probe compound of formula (I) (depletion), Direct inhibitor, targeted CYP 2A6, inhibitor 10 μM
T3 construct: from tissue; host or cells: human liver microsomes
T3 sequence (P11509 whole entry): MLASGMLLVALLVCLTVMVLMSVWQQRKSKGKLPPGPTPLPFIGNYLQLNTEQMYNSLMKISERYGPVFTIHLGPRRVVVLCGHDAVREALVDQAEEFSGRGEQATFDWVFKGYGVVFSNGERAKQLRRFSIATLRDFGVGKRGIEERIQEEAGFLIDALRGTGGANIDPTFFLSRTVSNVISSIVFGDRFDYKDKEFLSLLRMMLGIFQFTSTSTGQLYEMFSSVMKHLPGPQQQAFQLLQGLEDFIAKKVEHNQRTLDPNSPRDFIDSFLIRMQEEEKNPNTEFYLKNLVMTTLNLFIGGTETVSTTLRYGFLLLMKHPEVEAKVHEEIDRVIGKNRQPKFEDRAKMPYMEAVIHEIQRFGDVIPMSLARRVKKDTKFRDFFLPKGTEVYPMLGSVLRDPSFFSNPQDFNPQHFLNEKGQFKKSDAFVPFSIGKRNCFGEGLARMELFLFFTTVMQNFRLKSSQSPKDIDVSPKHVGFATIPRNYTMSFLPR

[10] = test system: CYP1A2 enzyme activity; assay: CYP enzyme activity in cultured human hepatocytes, CYP1A2; format: in vitro ADME; details: 50 μM, range from three donors
[11] = test system: CYP1A2 mRNA; assay: CYP mRNA level (qRT-PCR) in cultured human hepatocytes, CYP1A2; details: 50 μM, range of fold change observed from three donors
[12] = target: T4, CYP2B6 (Homo sapiens, UniProt P20813); assay: Selective chemical inhibition of compound of formula (I) depletion in human liver microsomes, CYP2B6; format: in vitro ADME; design: from tissue; host or cells: human liver microsomes; details: probe compound of formula (I) (depletion), Time-dependent inhibitor, targeted CYP 2B6, inhibitor 30 μM
T4 sequence (P20813 1-491): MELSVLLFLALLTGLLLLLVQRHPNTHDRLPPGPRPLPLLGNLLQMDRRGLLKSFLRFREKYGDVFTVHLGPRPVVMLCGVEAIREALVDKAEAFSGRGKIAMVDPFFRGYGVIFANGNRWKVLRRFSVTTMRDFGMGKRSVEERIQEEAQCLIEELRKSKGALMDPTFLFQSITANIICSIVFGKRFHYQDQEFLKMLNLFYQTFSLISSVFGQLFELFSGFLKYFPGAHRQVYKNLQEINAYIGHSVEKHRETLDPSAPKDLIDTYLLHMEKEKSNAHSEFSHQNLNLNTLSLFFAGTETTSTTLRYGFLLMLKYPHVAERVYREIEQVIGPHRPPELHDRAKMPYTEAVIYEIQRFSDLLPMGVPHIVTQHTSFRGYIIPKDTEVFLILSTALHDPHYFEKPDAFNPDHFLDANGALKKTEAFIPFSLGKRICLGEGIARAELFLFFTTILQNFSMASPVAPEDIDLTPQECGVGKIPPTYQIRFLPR

[13] = test system: CYP2B6 activity; assay: CYP enzyme activity in cultured human hepatocytes, CYP2B6; format: in vitro ADME; details: 1000 μM, range from three donors
[14] = test system: CYP2B6 mRNA; assay: CYP mRNA level (qRT-PCR) in cultured human hepatocytes, CYP2B6; details: CYP2B6; 1000 μM; range from three donors
[15] = target: 2D6 (Homo sapiens, UniProt P10635); assay: Selective chemical inhibition of compound of formula (I) depletion in human liver microsomes, CYP2D6; details: Direct inhibitor; targeted CYP 2D6; inhibitor 5 μM
Sequence of 2D6 (P10635 whole entry): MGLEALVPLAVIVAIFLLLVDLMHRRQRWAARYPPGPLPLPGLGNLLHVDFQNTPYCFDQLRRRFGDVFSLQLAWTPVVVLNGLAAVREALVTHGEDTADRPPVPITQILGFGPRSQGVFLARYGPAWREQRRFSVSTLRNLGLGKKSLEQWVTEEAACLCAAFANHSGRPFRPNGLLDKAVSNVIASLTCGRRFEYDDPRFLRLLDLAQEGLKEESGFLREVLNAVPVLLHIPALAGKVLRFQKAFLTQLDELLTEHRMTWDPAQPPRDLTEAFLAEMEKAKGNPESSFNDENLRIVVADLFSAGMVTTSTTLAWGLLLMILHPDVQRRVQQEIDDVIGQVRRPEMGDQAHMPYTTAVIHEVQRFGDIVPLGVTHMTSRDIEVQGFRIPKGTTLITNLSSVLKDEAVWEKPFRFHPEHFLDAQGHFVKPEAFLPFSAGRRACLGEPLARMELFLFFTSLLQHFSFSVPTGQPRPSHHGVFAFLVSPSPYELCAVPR

[16] = test system: CYP2C19 mRNA; assay: CYP mRNA level in cultured human hepatocytes, CYP2C19; format: in vitro ADME; details: CYP2C19; 20 μM; range from three donors
[17] = target: CYP2C9 (Homo sapiens, UniProt P11712); assay: in vitro
Sequence of CYP2C9 (P11712 whole entry): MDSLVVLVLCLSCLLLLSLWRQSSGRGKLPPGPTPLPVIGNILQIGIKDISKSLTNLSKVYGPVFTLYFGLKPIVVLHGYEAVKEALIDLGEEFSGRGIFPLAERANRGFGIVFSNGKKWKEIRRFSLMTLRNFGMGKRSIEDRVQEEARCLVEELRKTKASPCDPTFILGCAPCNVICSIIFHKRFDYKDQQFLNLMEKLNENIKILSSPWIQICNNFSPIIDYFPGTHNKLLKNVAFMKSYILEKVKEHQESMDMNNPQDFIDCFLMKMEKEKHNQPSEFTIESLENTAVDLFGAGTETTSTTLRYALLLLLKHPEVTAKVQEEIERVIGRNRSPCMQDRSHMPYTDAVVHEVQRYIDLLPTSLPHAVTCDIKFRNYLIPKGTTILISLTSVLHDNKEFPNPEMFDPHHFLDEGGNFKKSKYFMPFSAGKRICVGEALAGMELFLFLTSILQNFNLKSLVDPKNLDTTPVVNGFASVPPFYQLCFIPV

SMILES: CSCC[C@H](NC(=O)c1ccc(N)cc1)C(=O)Nc1nc(-c2cccc(-c3ccncc3)c2)cs1 [Compound A]
- onset of inhibition versus clinical PKC and MEK inhibitors ([1]; 92-1 or MP41): faster onset of inhibition
- growth inhibition of uveal melanoma cells versus clinical PKC and MEK inhibitors ([1]; 92-1 or MP41, 3 days, 0 to 10 μM, vs LXS196 and selumetinib): comparable growth inhibition

SMILES: CSCC[C@H](NC(=O)c1ccn(S(C)(=O)=O)c1)C(=O)Nc1nc(-c2cccc(-c3ccncc3)c2)cs1 [Compound B]
- growth inhibition in the cell lines [2]: potent growth inhibition
- onset of growth inhibition versus clinical PKC and MEK inhibitors ([3]; 92-1 or MP41): faster onset of growth inhibition
- growth inhibition of uveal melanoma cells versus clinical PKC and MEK inhibitors ([3]; 92-1 or MP41, 3 days, vs LXS196 and selumetinib): more potent effects on growth inhibition

SMILES: COc1ccc2nc([S@@+]([O-])Cc3ncc(C)c(OC)c3C)[nH]c2c1 [Esomeprazole, reference compound]
- inhibition at 10 µM [4]: 27.1%

SMILES: Cc1nc2c([nH]1)c(=O)n(C)c(=O)n2Cc1ccco1 [Furafylline]
- inhibition at 10 µM [5]: 1.9%

SMILES: Cc1ccc(C)c(OCCCC(C)(C)C(=O)O[C@@H]2O[C@H](C(=O)O)[C@@H](O)[C@H](O)[C@H]2O)c1 [Gemfibrozil glucuronide]
- % Inhibition of compound of formula (I) depletion in human liver microsomes [6]: No

SMILES: CC(=O)N1CCN(c2ccc(OCC3COC(Cn4ccnc4)(c4ccc(Cl)cc4Cl)O3)cc2)CC1 (stereo not shown) [Ketoconazole, reference compound]
- inhibition at 1 µM [7]: 83.3%

SMILES: CC1(N)CCN(c2cccnc2NC(=O)c2nc(-c3ncccc3C(F)(F)F)cnc2N)CC1 [LXS196]
- sensitivity of PKCl-resistant cells relative to parental MP41 cells [8]: could tolerate growth at higher concentrations

SMILES: N#Cc1ccc(C(c2ccc(C#N)cc2)n2cncn2)cc1 [Letrozole]
- inhibition at 10 µM [9]: 9.1%

SMILES: COc1ccc2[nH]c([S+]([O-])Cc3ncc(C)c(OC)c3C)nc2c1 (stereo not shown) [Omeprazole, reference compound]
- Positive Control Enzyme Activity Fold Change [10]: 20.0-93.9
- Positive Control mRNA Fold Change [11]: 50.2-118

SMILES: c1ccc(C2(N3CCCCC3)CCCCC2)cc1 [Phencyclidine]
- inhibition at 30 µM [12]: 5.7%

SMILES: CCC1(c2ccccc2)C(=O)NC(=O)NC1=O [Phenobarbital, reference compound]
- Positive Control Enzyme Activity Fold Change [13]: 11.9-16.7
- Positive Control mRNA Fold Change [14]: 15.3-39.6

SMILES: C=C[C@H]1C[N@@]2CC[C@H]1C[C@@H]2[C@@H](O)c1ccnc2ccc(OC)cc12 [Quinidine]
- % Inhibition of compound of formula (I) depletion in human liver microsomes [15]: No

SMILES: CO[C@H]1/C=C/O[C@@]2(C)Oc3c(C)c(O)c4c(O)c(c(/C=N/N5CCN(C)CC5)c(O)c4c3C2=O)NC(=O)/C(C)=C\C=C\[C@H](C)[C@H](O)[C@@H](C)[C@@H](O)[C@@H](C)[C@H](OC(C)=O)[C@@H]1C [Rifampin, reference compound]
- Positive Control mRNA Fold Change [16]: 0.61-1.01

SMILES: O=C(O)COc1ccc(C(=O)c2cccs2)c(Cl)c1Cl [Tienilic acid]
- inhibition at 20 µM [17]: 2.4%
